Tested on: THP-1 ISG reporter cells
Test: THP-1 ISG reporter cell assay in the context of cGAMP delivery
Assay type: cell-based
Settings: free cGAMP, dashed line in FIG. 10C; read-out: Half-maximal response of cGAMP
Text: The graft copolymers disclosed herein were next tested for bioactivity and drug delivery properties. As illustrated in FIGS. 9A-B, hemolysis, a measure of endosomolytic activity, increases with increasing MW and decreases with increasing hydrophilic weight fraction. Turning to FIGS. 10A-D, THP-1 ISG reporter cells were used to determine cellular uptake and cGAMP delivery.

For `Nc1nc2c(ncn2[C@@H]2O[C@@H]3COP(=O)(O)O[C@H]4[C@@H](O)[C@H](n5cnc6c(N)ncnc65)O[C@@H]4COP(=O)(O)O[C@@H]2[C@@H]3O)c(=O)[nH]1` [cGAMP], the EC50 was 40 µM.

Source: patent US12508233B2, “Graft copolymers, methods of forming graft copolymers, and methods of use thereof” (Vanderbilt University, priority 2018, dated 2025)
